Source: patent US20100160454A1, “ANTIMICROBIAL AGENTS, COMPOSITIONS AND PRODUCTS CONTAINING THE SAME, AND METHODS OF USING THE COMPOSITIONS AND PRODUCTS” (Eastman Chemical Company, priority 2008, published 2010)

Experiments:
Experiment in all cases: Challenge testing against pathogenic fungi, growth rating in broth tubes
Format in all cases: cell-based
Parameters in all cases: key: 0: No visible growth; 1: Some growth in tube; 2: Moderate growth in tube; 3: Good growth in tube; 4: Extreme growth in tube
[1] = test system: Malassezia furfur (ATCC 96809); settings: Malassezia furfur
Procedure: (§1) Both Microsporum canis and Trichophyton rubrum were grown on Sabouraud dextrose broth, while Malassezia fufur was grown in Sabouraud dextrose broth supplemented with 2% (v/v) of olive oil and 0.2% (v/v) of Tween™ 80; incubation was at 22°±2° C. under continuous agitation by stirring for 10 days. The organisms were grown to a density of between 1.0×10^3 to 1.0×10^4 cfu/g. The actual inoculation cell density of these challenges were determined by diluting in sterile buffer water and (spread-plate method) plating for enumeration.
(§2) Challenge organisms were used to inoculate tubes of 1,4-CHDM-D90 test concentrations prepared in Sabouraud dextrose broth (or Sabouraud dextrose broth supplemented with olive oil-Tween™ 80 with M. furfur). The inoculations were in the amount of 1.5 mL aliquots of each culture with static incubation at 22±2° C. Subcultures were made at 3-, 14- and 30-day increments. All challenges were conducted in triplicate. In the case of M. canis, the growth response was assessed by the visual presence/absence of growth in the tubes; in the case of T. rubrum, a respiratory (redox) dye (0.2% w/v aqueous INT solution: 2-[4-iodophenyl)-3-4-nitrophenyl]-5-phenyl tetrazolium chloride) was added to the tubes, turning red if the organism was viable; and, finally, in the case of M. furfur, the growth response was assessed based upon pellicle formation in the tubes at the meniscus. The test formulations and challenge test results, as well as 30-day MICs (Minimum Inhibitory Concentration), are in Tables 7-9 for the three organisms using the following growth rating system:
(§3) • 0: No visible growth • 1: Some growth in tube • 2: Moderate growth in tube • 3: Good growth in tube • 4: Extreme growth in tube

[2] = test system: Trichophyton rubrum (ATCC 10218); settings: Trichophyton rubrum
Procedure: as §1, §2, §3

[3] = test system: Microsporum canis (ATTC 9084); settings: Microsporum canis
Procedure: as §1, §2, §3

[4] = test concentration 0.5%, 3 days
[5] = test concentration 0.5%, 14 days
[6] = test concentration 0.5%, 30 days
[7] = test concentration 1.25%, 3 days
[8] = test concentration 1.25%, 14 days
[9] = test concentration 1.25%, 30 days
[10] = test concentration 2.5%, 3 days
[11] = test concentration 2.5%, 14 days
[12] = test concentration 2.5%, 30 days

OCC1CCC(CO)CC1 (stereo not drawn) [1,4-CHDM-D90, 1,4-cyclohexanedimethanol]
Growth Rating [1, 4]: 0 | Growth Rating [1, 5]: 1 | Growth Rating [1, 6]: 2 | Growth Rating [1, 7]: 0/0/0 | Growth Rating [1, 8]: 0/0/0 | Growth Rating [1, 9]: 0/0/0 | Growth Rating [1, 10]: 0/0/0 | Growth Rating [1, 11]: 0/0/0 | Growth Rating [1, 12]: 0/0/0 | Growth Rating ([1]; test concentration 5%, 3 days): 0/0/0 | Growth Rating ([1]; test concentration 5%, 14 days): 0/0/0 | Growth Rating ([1]; test concentration 5%, 30 days): 0/0/0 | Growth Rating [2, 4]: 1/1/1 | Growth Rating [2, 5]: 1/1/1 | Growth Rating [2, 6]: 1/1/1 | Growth Rating [2, 7]: 0/0/0 | Growth Rating [2, 8]: 0/0/0 | Growth Rating [2, 9]: 0/0/0 | Growth Rating [2, 10]: 0/0/0 | Growth Rating [2, 11]: 0/0/0 | Growth Rating [2, 12]: 0/0/0 | Growth Rating ([2]; test concentration 5%, 3 days): 1 | Growth Rating ([2]; test concentration 5%, 14 days): 0 | Growth Rating ([2]; test concentration 5%, 30 days): 0 | Growth Rating [3, 4]: 2 | Growth Rating [3, 5]: 1 | Growth Rating [3, 6]: 1 | Growth Rating [3, 7]: 2 | Growth Rating [3, 8]: 1 | Growth Rating [3, 9]: 1 | Growth Rating [3, 10]: 2 | Growth Rating [3, 11]: 0 | Growth Rating [3, 12]: 0 | Growth Rating ([3]; test concentration 5%, 3 days): 0/0/0 | Growth Rating ([3]; test concentration 5%, 14 days): 0/0/0 | Growth Rating ([3]; test concentration 5%, 30 days): 0/0/0
